# Measured values reported in patent US6359006B2, “Amphiphilic fluorine derivatives with telomeric structures; preparation procedure and biomedical applications” (Alliance Pharmaceutical Corp., priority 1990, dated 2002).
# Test: Solubility
# Format: physicochemical
structure (smiles),measurement,setting,value
"O=C(CCSCCC(F)(F)C(F)(F)C(F)(F)C(F)(F)C(F)(F)C(F)(F)F)NC(CO)(CO)CO [monoadduct 14, N-[(trihydrozymethyl)methyl]4-thia-6-(n-perfluorohezyl) hexanamide]",solubility in organic solvents (in words),"organic solvents such as AcOEt, CH3CN, CH3OH, CHCl3",soluble in organic solvents
same,solubility in water (in words),water,insoluble in water
